Data reported in patent publication US10626092B2, “Polymorphic forms of 3-[(2-butyl-1-(2-diethylamino-ethyl)-1H-benzoimidazol-5-yl]-N-hydroxy-acrylamide and uses thereof” (MEI PHARMA, INC., priority 2016, dated 2020).
Counter-ions that a name gives are not always drawn. Values belong to the molecule of their own block, whether it stands above or below them.

Legend:
Format in all cases: physicochemical
[1] = Physical stability under accelerated aging conditions (40° C./70% RH), physical form re-determined by HT-XRPD; conditions: physical stability under accelerated aging conditions (40° C./70% RH) for 48 hours
Description: Solids were analyzed for their physical stability under accelerated aging conditions (40° C./70% RH) for 48 hours. After the exposure, the physical form was determined again by HT-XRPD analysis. The physico-chemical characterization of the forms was done by TGMS analysis to determine the solvation state of the form and thermal events and by DSC analysis to confirm the thermal events observed in the SDTA signal of the TGA. (See Examples for details.)
Suspensions of 3-[2-butyl-1-(2-diethylamino-ethyl)-1H-benzoimidazol-5-yl]-N-hydroxy-acrylamide dihydrochloride monohydrate (Form 1) and 2.5 hydrate (Form 3) were prepared in 12 process relevant solvent systems. The suspensions were cycled between 5° C. and 50° C. followed by aging at 25° C. for 72 hours. […] Upon completion of the incubation time, the solids were collected, dried under ambient conditions and dried under deep vacuum before being analyzed by HT-XRPD. All the measured solids were exposed to accelerated ageing conditions (2 days at 40° C./70% RH) followed by re-analysis by HT-XRPD.
Long-term slurry conversion experiments were carried out by preparing suspensions of 3-[2-butyl-1-(2-diethylamino-ethyl)-1H-benzoimidazol-5-yl]-N-hydroxy-acrylamide dihydrochloride 2.5 hydrate (Form 3) and monohydrate (Form 1) in 12 different solvents and solvent mixtures. Approximately 30 mg of the specific form was dosed in a standard HPLC vial and aliquots of 100 μL of solvent until a suspension was formed. The suspensions were stirred for 2 weeks at room temperature and for 1 week at 50° C. The solids were isolated from the mother liquor and analyzed by HT-XRPD after mild drying under ambient conditions (ambient) and after thorough drying under vacuum (vacuum). All the solids were exposed to accelerated ageing conditions (2 days at 40° C./70% RH) and re-analyzed by HT-XRPD.
(§1) The competitive slurry experiments were performed in ethanol/water mixtures and methanol/water mixtures within a water activity range of 0-0.2. Approximately 50 mg of each pracinostat dihydrochloride solid form 2.5 hydrate and monohydrate were solid dosed in 1.8 mL HPLC vials. Aliquots of 100 μL of the different water mixtures were added until about half of the amount of solid was in solution. Subsequently, the vials were stirred for one week at 5° C., 21° C. and 50° C. Upon completion of the equilibration time, the solids were separated from the liquids by centrifugation. The solids were dried under ambient conditions (ambient) and dried under vacuum (vacuum) before HT-XRPD analysis. All solid samples were exposed to accelerated gaining conditions (40° C. and 70% RH) for two days (AAC). The water content in the liquid phase was determined Karl Fischer analysis.

[2] = Moisture sorption study (DVS analysis); conditions: for solid form recovered after DVS: HT-XRPD
Description: A moisture sorption study was performed to investigate the physical stability of 3-[2-butyl-1-(2-diethylamino-ethyl)-1H-benzoimidazol-5-yl]-N-hydroxy-acrylamide dihydrochloride 2.5 hydrate upon exposure to several relative humidity profiles. HT-XRPD analyses were performed on the solid material obtained after the DVS analyses. The analytical method is described herein.
Differences in hygroscopicity (moisture uptake) of the various forms of a solid material provided a measure of their relative stability at increasing relative humidity. Moisture sorption isotherms of small samples were obtained using a DVS-1 system from Surface Measurement Systems (London, UK); this instrument is suitable for use with as little as a few milligrams of sample, with an accuracy of 0.1 μg. Several humidity profile were applied as described in each individual experiment. Steps consisted of 10% RH. Weight equilibration per step was set with a minimum holding time of 1 hour (10% relative humidity step). At the end of the DVS experiments, the recovered solid material was measured by HT-XRPD.

[3] = Long-term slurry conversion experiments; conditions: drying the solids under vacuum; converts to 2.5 hydrate Form 3
Description: Approximately 30 mg of the specific form was dosed in a standard HPLC vial and aliquots of 100 μL of solvent until a suspension was formed. […] The solids were isolated from the mother liquor and analyzed by HT-XRPD after mild drying under ambient conditions (ambient) and after thorough drying under vacuum (vacuum). All the solids were exposed to accelerated ageing conditions (2 days at 40° C./70% RH) and re-analyzed by HT-XRPD.

[4] = Variable temperature XRPD; conditions: 25° C. to 130° C.
Description: To investigate the phase interconversions upon temperature exposure, a variable temperature XRPD analysis on 3-[2-butyl-1-(2-diethylamino-ethyl)-1H-benzoimidazol-5-yl]-N-hydroxy-acrylamide dihydrochloride 2.5 hydrate was performed. The experiment was run between 25° C. to 130° C. with cooling back to 25° C. at the end. […] After reaching a temperature of 130° C., the material was cooled back to 25° C.
A variable temperature XRPD experiment with 3-[2-butyl-1-(2-diethylamino-ethyl)-1H-benzoimidazol-5-yl]-N-hydroxy-acrylamide dihydrochloride monohydrate was conducted to investigate the solid form conversion that occurred upon heating. The experiment was run between 25° C. to 143° C. followed by cooling to 25° C., reheating to 155° C. and then cooling again to 25° C. (see FIG. 19).
For variable humidity and temperature experiments the ANSYCO HT chamber was used, installed within the D8 Advance system diffractometer (Bruker) designed with Brag-Brentano geometry and equipped with LynxEye solid state detector. The radiation used for collecting the data was CuKα1 (λ=1.54056 Å) monochromatized by germanium crystal. The material was placed on a fixed sample holder that was mounted inside the chamber.
VT-XRPD: The temperature variation rate was 10° C./min and the equilibration time, prior to starting the data collection at each temperature, was 8 min. The patterns were collected in the range 4-41°2θ, with a step of 0.01573°2θ and measuring time per step of 1 sec. The data collection time, per temperature, was 40 min.

[5] = Desolvation studies: equilibration at 125° C. in high boiling point solvents; conditions: two days; for Form in Ambient AAC: then accelerated aging conditions
Description: Using solvent equilibration of hydrates in high boiling point solvents has been reported as a method to obtaining desolvated forms. […] The experiments were started with approximately 50 mg of material and 100 μL of solvent. After equilibration, the solids were isolated from the solutions by centrifugation. The solids were allowed to dry under ambient conditions before HT-XRPD analysis was performed. The wet solids were analyzed by HT-XRPD immediately to avoid hydration under ambient conditions or under vacuum.

[6] = Competitive slurry conversion (thermodynamic stability) of Form 1 and Form 3; conditions: ethanol/water, one week slurry
Description: as §1, with “Approximately 50 mg of each solid form were solid dosed in a standard HPLC vial followed by solvent addition. The competitive” for “The competitive”, “in solution. […] Upon completion” for “in solution. Subsequently, the vials were stirred for one week at 5° C., 21° C. and 50° C. Upon completion”

Thermocycling studies = test: Thermocycling studies
Description: The suspensions were cycled between 5° C. and 50° C. followed by aging at 25° C. for 72 hours. […] Upon completion of the incubation time, the solids were collected, dried under ambient conditions and dried under deep vacuum before being analyzed by HT-XRPD. All the measured solids were exposed to accelerated ageing conditions (2 days at 40° C./70% RH) followed by re-analysis by HT-XRPD.

[7] = Moisture sorption study (DVS analysis); conditions: DVS; hydrate
[8] = four sorption-desorption cycles 0-95-0% RH

- Stability ([1]; dihydrochloride hemihydrate): Unstable
- physical stability under ambient conditions ([2]; form appearing at 0% RH, converts to 2.5 hydrate (Form 3)): physically unstable
SMILES: CCCCc1nc2cc(/C=C/C(=O)NO)ccc2n1CCN(CC)CC [Form 10, 3-[2-butyl-1-(2-diethylamino-ethyl)-1H-benzoimidazol-5-yl]-N-hydroxy-acrylamide dihydrochloride hemihydrate]

- Stability ([1]; dihydrochloride trihydrate): Unstable
- physical stability upon drying [3]: physically unstable
SMILES: CCCCc1nc2cc(/C=C/C(=O)NO)ccc2n1CCN(CC)CC [Form 2, 3-[2-butyl-1-(2-diethylamino-ethyl)-1H-benzoimidazol-5-yl]-N-hydroxy-acrylamide dihydrochloride trihydrate]

- Stability ([1]; hydrate): Stable
- hygroscopicity ([2]; DVS, hydrate): non-hygroscopic
- gradual loss of water ([2]; constant 0% RH for 18 hours, in the first 5 hours): 8%
- mass loss at 0% RH [2, 8]: about 2%
- relative humidity below which the water is gradually lost [2, 8]: below 15 % RH
- relative humidity values at which the form does not change [2, 8]: 25-95%
- water loss between 5-0% RH ([2]; two sorption-desorption cycles 45-95-0-95-0-45% RH): about 2%
- solid form recovered after DVS ([2]; two sorption-desorption cycles 45-95-0-95-0-45% RH, hydrate): 2.5 hydrate was recovered
- temperature at which conversion to a new solid form was initially observed [4]: 60 °C
- temperature at which conversion to the new solid form was completed [4]: 70 °C
- temperature at which second conversion (to Form 5) was completed [4]: 110 °C
- temperature at which second conversion (to Form 5) was observed [4]: 100 °C
- Form in Ambient ([5]; Anisole): Mono
- Form in Ambient AAC ([5]; Anisole): 2.5
- Form in Ambient ([5]; Cumene): Mono
- Form in Ambient AAC ([5]; Cumene, hydrate): 2.5 + Mono
- Form in Ambient ([5]; N-Methyl-2-pyrrolidone, hydrate): Mono
- Form in Ambient AAC ([5]; N-Methyl-2-pyrrolidone): 2.5
- Form in Ambient ([5]; p-Xylene): Mono
- Form in Ambient AAC ([5]; p-Xylene): 2.5
- water content of the solvent system at which the form is the most stable / obtained form ([6]; 5° C. (below ambient), hydrate): above 2%
- water content of the solvent system at which the form is the most stable / obtained form ([6]; ambient conditions, hydrate): above 3%
- solid form after thermocycling (Thermocycling studies; ethanol, absolute or extra dry, hydrate): converted to the monohydrate Form 1
- solid form after thermocycling (Thermocycling studies; methanol, no water present): converts to the monohydrate Form 1
- hygroscopicity [7]: not hygroscopic
SMILES: CCCCc1nc2cc(/C=C/C(=O)NO)ccc2n1CCN(CC)CC [Form 3, 3-[2-butyl-1-(2-diethylamino-ethyl)-1H-benzoimidazol-5-yl]-N-hydroxy-acrylamide dihydrochloride 2.5 hydrate]
- solid form recovered after DVS ([2]; 0% RH for 18 hours): converted to a new solid form designated Form 6
- relative stability of the form (Thermocycling studies; thermocycling in ethanol/water mixtures): most stable form in a wide range of ethanol/water mixtures
- relative stability of the form (Thermocycling studies; thermocycling in methanol/water mixtures): most stable form in a wide range of methanol/water mixtures

- Stability ([1]; dihydrochloride): Unstable
SMILES: CCCCc1nc2cc(/C=C/C(=O)NO)ccc2n1CCN(CC)CC [Form 5, 3-[2-butyl-1-(2-diethylamino-ethyl)-1H-benzoimidazol-5-yl]-N-hydroxy-acrylamide dihydrochloride]

- Stability ([1]; hydrate): Unstable
SMILES: CCCCc1nc2cc(/C=C/C(=O)NO)ccc2n1CCN(CC)CC [Form 4, 3-[2-butyl-1-(2-diethylamino-ethyl)-1H-benzoimidazol-5-yl]-N-hydroxy-acrylamide dihydrochloride 1.5 hydrate]

- Stability [1]: Unstable
- water content of the solvent system at which the form is the most stable form ([6]; 50° C. (elevated temperatures)): below 1.5%
- water content of the solvent system at which the form is the most stable / obtained form ([6]; ambient conditions): below 2.5%
SMILES: CCCCc1nc2cc(/C=C/C(=O)NO)ccc2n1CCN(CC)CC [Form 9, 3-[2-butyl-1-(2-diethylamino-ethyl)-1H-benzoimidazol-5-yl]-N-hydroxy-acrylamide dihydrochloride anhydrous]
